Patent US20230085307A1, “PYRIDAZINONE COMPOUND AND HERBICIDE” (NISSAN CHEMICAL CORPORATION, priority 2019, published 2023)

Columns and labels:
velvetleaf [1] = assay: Test Example 4: herbicidal effect by soil treatment (Table 19, symbol M); format: in vivo, velvetleaf (Abutilon theophrasti); conditions: amount of applied herbicide 320 g/ha
Summary of the method: (§1)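 Step 1: sow seeds in sterilized diluvial soil, cover ~1.5 cm. Step 2: spray diluted emulsion onto soil surface at predetermined rate. Step 3: greenhouse, 25–30° C, three weeks. Step 4: grade effect on each plant by earlier criteria.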

lambsquarters [2] = assay: Test Example 4: herbicidal effect by soil treatment (Table 19, symbol O); format: in vivo, lambsquarters (Chenopodium album); conditions: amount of applied herbicide 320 g/ha
Summary of the method: as §1

persian speedwell [3] = assay: Test Example 5: herbicidal effect by foliage application, plastic box (Table 20, symbol R); format: in vivo, Persian speedwell (Veronica persica); conditions: foliage application, 320 g/ha, evaluated 3 weeks after application
Summary of the method: (§2)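 Foliar spray test: emulsion formulation diluted in water to a set application rate, sprayed onto 14-day-old plants raised in diluvial soil at 25° C to 30° C under glass. Both herbicidal effect and crop effect rated visually three weeks later.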

windgrass [4] = assay: Test Example 4: herbicidal effect by soil treatment (Table 19, symbol L); format: in vivo, windgrass (Apera spica-venti); conditions: amount of applied herbicide 320 g/ha
Summary of the method: as §1

southern crabgrass = assay: Test Example 5: herbicidal effect by foliage application, plastic box (Table 20, symbol F); format: in vivo, southern crabgrass (Digitaria ciliaris); conditions: foliage application, 320 g/ha, evaluated 3 weeks after application
Summary of the method: as §2

barnyard grass = assay: Test Example 3: herbicidal effect by foliage application, Wagner pot (Table 18, symbol H); format: in vivo, barnyard grass (Echinochloa crus-galli); conditions: amount of applied herbicide 320 g/ha
Summary of the method: (§3)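 Plants were sown in alluvial soil held under 0.1–0.5 cm standing water and grown 14 days in a greenhouse at 25–30 °C. An emulsifiable formulation, water-diluted to the set dose, was then sprayed onto the foliage, and effects were scored three weeks later using previously defined criteria.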

windgrass [5] = assay: Test Example 5: herbicidal effect by foliage application, plastic box (Table 20, symbol L); format: in vivo, windgrass (Apera spica-venti); conditions: foliage application, 320 g/ha, evaluated 3 weeks after application
Summary of the method: as §2

Chinese sprangletop = assay: Test Example 3: herbicidal effect by foliage application, Wagner pot (Table 18, symbol D); format: in vivo, chinese sprangletop (Leptochloa chinensis); conditions: amount of applied herbicide 320 g/ha
Summary of the method: as §3

velvetleaf [6] = assay: Test Example 5: herbicidal effect by foliage application, plastic box (Table 20, symbol M); format: in vivo, velvetleaf (Abutilon theophrasti); conditions: foliage application, 320 g/ha, evaluated 3 weeks after application
Summary of the method: as §2

late watergrass = assay: Test Example 2: herbicidal activity, application during weed generation under submerged conditions (Table 17, symbol A); format: in vivo, late watergrass (Echinochloa oryzicola); conditions: application during weed generation under submerged conditions; amount of applied herbicide 320 g/ha
Summary of the method: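 Mixed weed seedlings in alluvial soil under a 4 cm water layer, greenhouse-grown at 25–30° C. Compound given as a diluted emulsion into the floodwater at the 1–2 leaf stage; response graded after three weeks.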

oval-leafed pondweed = assay: Test Example 1: herbicidal activity, application before weed generation under submerged conditions (Table 16, symbol C); format: in vivo, oval-leafed pondweed (Monochoria vaginalis); conditions: amount of applied herbicide 320 g/ha
Summary of the method: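 Submerged Wagner pots (alluvial soil, 4 cm water) sown with weed seeds and planted with 2.5-leaf rice seedlings; emulsifiable concentrate diluted in water applied to water surface on sowing day. Held in greenhouse at 25-30 °C; injury scored 0-5 by herbicidal rate after three weeks.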

persian speedwell [7] = assay: Test Example 4: herbicidal effect by soil treatment (Table 19, symbol R); format: in vivo, Persian speedwell (Veronica persica); conditions: amount of applied herbicide 320 g/ha
Summary of the method: as §1

Italian ryegrass = assay: Test Example 5: herbicidal effect by foliage application, plastic box (Table 20, symbol K); format: in vivo, Italian ryegrass (Lolium multiflorum); conditions: foliage application, 320 g/ha, evaluated 3 weeks after application
Summary of the method: as §2

rice flat sedge = assay: Test Example 3: herbicidal effect by foliage application, Wagner pot (Table 18, symbol E); format: in vivo, rice flat sedge (Cyperus iria); conditions: amount of applied herbicide 320 g/ha
Summary of the method: as §3

green foxtail = assay: Test Example 4: herbicidal effect by soil treatment (Table 19, symbol G); format: in vivo, green foxtail (Setaria viridis); conditions: amount of applied herbicide 320 g/ha
Summary of the method: as §1

lambsquarters [8] = assay: Test Example 5: herbicidal effect by foliage application, plastic box (Table 20, symbol O); format: in vivo, lambsquarters (Chenopodium album); conditions: foliage application, 320 g/ha, evaluated 3 weeks after application
Summary of the method: as §2

chickweed = assay: Test Example 4: herbicidal effect by soil treatment (Table 19, symbol P); format: in vivo, common chickweed (Stellaria media); conditions: amount of applied herbicide 320 g/ha
Summary of the method: as §1

Cc1ccc2oc(-c3ccc(OCC(C)C)cc3)c(-c3c(O)c(C)nn(C)c3=O)c2c1 [9-051]
M: velvetleaf, herbicidal effect grade (velvetleaf [1]): 3 (Herbicidal rate of 40% or more and less than 70%)
O: lambsquarters, herbicidal effect grade (lambsquarters [2]): 5 (Herbicidal rate of 90% or more (almost completely withered))
R (persian speedwell) herbicidal effect grade (persian speedwell [3]): 5 (Herbicidal rate of 90% or more (almost completely withered))
L: windgrass, herbicidal effect grade (windgrass [4]): 4 (Herbicidal rate of 70% or more and less than 90%)
F (southern crabgrass) herbicidal effect grade (southern crabgrass): 5 (Herbicidal rate of 90% or more (almost completely withered))
Herbicidal effect on H (barnyard grass), foliage application (barnyard grass): 5 (Herbicidal rate of 90% or more (almost completely withered))
L (windgrass) herbicidal effect grade (windgrass [5]): 2 (Herbicidal rate of 20% or more and less than 40%)
Herbicidal effect on D (Chinese sprangletop), foliage application (Chinese sprangletop): 3 (Herbicidal rate of 40% or more and less than 70%)
M (velvetleaf) herbicidal effect grade (velvetleaf [6]): 5 (Herbicidal rate of 90% or more (almost completely withered))
herbicidal effect grade, A: late watergrass (late watergrass): 5 (Herbicidal rate of 90% or more (almost completely withered))
Herbicidal effect, C: oval-leafed pondweed (oval-leafed pondweed): 5 (Herbicidal rate of 90% or more (almost completely withered))
R: persian speedwell, herbicidal effect grade (persian speedwell [7]): 5 (Herbicidal rate of 90% or more (almost completely withered))
K (Italian ryegrass) herbicidal effect grade (Italian ryegrass): 5 (Herbicidal rate of 90% or more (almost completely withered))
Herbicidal effect on E (rice flat sedge), foliage application (rice flat sedge): 4 (Herbicidal rate of 70% or more and less than 90%)
G: green foxtail, herbicidal effect grade (green foxtail): 5 (Herbicidal rate of 90% or more (almost completely withered))
O (lambsquarters) herbicidal effect grade (lambsquarters [8]): 5 (Herbicidal rate of 90% or more (almost completely withered))
P: chickweed, herbicidal effect grade (chickweed): 5 (Herbicidal rate of 90% or more (almost completely withered))

CSc1ccc(-c2oc3ccc(C)cc3c2-c2c(O)c(C)nn(C)c2=O)cc1 [9-055]
M: velvetleaf, herbicidal effect grade (velvetleaf [1]): 5 (Herbicidal rate of 90% or more (almost completely withered))
O: lambsquarters, herbicidal effect grade (lambsquarters [2]): 4 (Herbicidal rate of 70% or more and less than 90%)
R (persian speedwell) herbicidal effect grade (persian speedwell [3]): 5 (Herbicidal rate of 90% or more (almost completely withered))
L: windgrass, herbicidal effect grade (windgrass [4]): 0 (Herbicidal rate of 5% or less (almost no effect))
F (southern crabgrass) herbicidal effect grade (southern crabgrass): 4 (Herbicidal rate of 70% or more and less than 90%)
Herbicidal effect on H (barnyard grass), foliage application (barnyard grass): 5 (Herbicidal rate of 90% or more (almost completely withered))
L (windgrass) herbicidal effect grade (windgrass [5]): 4 (Herbicidal rate of 70% or more and less than 90%)
Herbicidal effect on D (Chinese sprangletop), foliage application (Chinese sprangletop): 5 (Herbicidal rate of 90% or more (almost completely withered))
M (velvetleaf) herbicidal effect grade (velvetleaf [6]): 5 (Herbicidal rate of 90% or more (almost completely withered))
herbicidal effect grade, A: late watergrass (late watergrass): 4 (Herbicidal rate of 70% or more and less than 90%)
Herbicidal effect, C: oval-leafed pondweed (oval-leafed pondweed): 4 (Herbicidal rate of 70% or more and less than 90%)
R: persian speedwell, herbicidal effect grade (persian speedwell [7]): 5 (Herbicidal rate of 90% or more (almost completely withered))
K (Italian ryegrass) herbicidal effect grade (Italian ryegrass): 5 (Herbicidal rate of 90% or more (almost completely withered))
Herbicidal effect on E (rice flat sedge), foliage application (rice flat sedge): 5 (Herbicidal rate of 90% or more (almost completely withered))
G: green foxtail, herbicidal effect grade (green foxtail): 4 (Herbicidal rate of 70% or more and less than 90%)
O (lambsquarters) herbicidal effect grade (lambsquarters [8]): 5 (Herbicidal rate of 90% or more (almost completely withered))
P: chickweed, herbicidal effect grade (chickweed): 5 (Herbicidal rate of 90% or more (almost completely withered))

CCSc1ccc(-c2oc3ccc(C)cc3c2-c2c(O)c(C)nn(C)c2=O)cc1 [9-057]
M: velvetleaf, herbicidal effect grade (velvetleaf [1]): 4 (Herbicidal rate of 70% or more and less than 90%)
O: lambsquarters, herbicidal effect grade (lambsquarters [2]): 5 (Herbicidal rate of 90% or more (almost completely withered))
R (persian speedwell) herbicidal effect grade (persian speedwell [3]): 5 (Herbicidal rate of 90% or more (almost completely withered))
L: windgrass, herbicidal effect grade (windgrass [4]): 0 (Herbicidal rate of 5% or less (almost no effect))
F (southern crabgrass) herbicidal effect grade (southern crabgrass): 5 (Herbicidal rate of 90% or more (almost completely withered))
Herbicidal effect on H (barnyard grass), foliage application (barnyard grass): 5 (Herbicidal rate of 90% or more (almost completely withered))
L (windgrass) herbicidal effect grade (windgrass [5]): 3 (Herbicidal rate of 40% or more and less than 70%)
Herbicidal effect on D (Chinese sprangletop), foliage application (Chinese sprangletop): 3 (Herbicidal rate of 40% or more and less than 70%)
M (velvetleaf) herbicidal effect grade (velvetleaf [6]): 5 (Herbicidal rate of 90% or more (almost completely withered))
herbicidal effect grade, A: late watergrass (late watergrass): 5 (Herbicidal rate of 90% or more (almost completely withered))
Herbicidal effect, C: oval-leafed pondweed (oval-leafed pondweed): 4 (Herbicidal rate of 70% or more and less than 90%)
R: persian speedwell, herbicidal effect grade (persian speedwell [7]): 5 (Herbicidal rate of 90% or more (almost completely withered))
K (Italian ryegrass) herbicidal effect grade (Italian ryegrass): 5 (Herbicidal rate of 90% or more (almost completely withered))
Herbicidal effect on E (rice flat sedge), foliage application (rice flat sedge): 5 (Herbicidal rate of 90% or more (almost completely withered))
G: green foxtail, herbicidal effect grade (green foxtail): 5 (Herbicidal rate of 90% or more (almost completely withered))
O (lambsquarters) herbicidal effect grade (lambsquarters [8]): 5 (Herbicidal rate of 90% or more (almost completely withered))
P: chickweed, herbicidal effect grade (chickweed): 5 (Herbicidal rate of 90% or more (almost completely withered))

Cc1nn(C)c(=O)c(-c2c(-c3ccc(Cl)cc3)sc3cccc(F)c23)c1O [11-001]
M: velvetleaf, herbicidal effect grade (velvetleaf [1]): 2 (Herbicidal rate of 20% or more and less than 40%)
O: lambsquarters, herbicidal effect grade (lambsquarters [2]): 4 (Herbicidal rate of 70% or more and less than 90%)
R (persian speedwell) herbicidal effect grade (persian speedwell [3]): 5 (Herbicidal rate of 90% or more (almost completely withered))
L: windgrass, herbicidal effect grade (windgrass [4]): 0 (Herbicidal rate of 5% or less (almost no effect))
F (southern crabgrass) herbicidal effect grade (southern crabgrass): 0 (Herbicidal rate of 5% or less (almost no effect))
Herbicidal effect on H (barnyard grass), foliage application (barnyard grass): 3 (Herbicidal rate of 40% or more and less than 70%)
L (windgrass) herbicidal effect grade (windgrass [5]): 0 (Herbicidal rate of 5% or less (almost no effect))
Herbicidal effect on D (Chinese sprangletop), foliage application (Chinese sprangletop): 3 (Herbicidal rate of 40% or more and less than 70%)
M (velvetleaf) herbicidal effect grade (velvetleaf [6]): 5 (Herbicidal rate of 90% or more (almost completely withered))
herbicidal effect grade, A: late watergrass (late watergrass): 2 (Herbicidal rate of 20% or more and less than 40%)
Herbicidal effect, C: oval-leafed pondweed (oval-leafed pondweed): 5 (Herbicidal rate of 90% or more (almost completely withered))
R: persian speedwell, herbicidal effect grade (persian speedwell [7]): 5 (Herbicidal rate of 90% or more (almost completely withered))
K (Italian ryegrass) herbicidal effect grade (Italian ryegrass): 3 (Herbicidal rate of 40% or more and less than 70%)
Herbicidal effect on E (rice flat sedge), foliage application (rice flat sedge): 5 (Herbicidal rate of 90% or more (almost completely withered))
G: green foxtail, herbicidal effect grade (green foxtail): 0 (Herbicidal rate of 5% or less (almost no effect))
O (lambsquarters) herbicidal effect grade (lambsquarters [8]): 5 (Herbicidal rate of 90% or more (almost completely withered))
P: chickweed, herbicidal effect grade (chickweed): 4 (Herbicidal rate of 70% or more and less than 90%)
